# Source: US20240409585A1, “MACROCYCLIC IMMUNOMODULATORS” (priority 2021, published 2024)
# Numbered stars: 1 amine (or outer) side, 2 acyl side, 3 side chain; on linkers, the order of the positions; unused ones are H or OH. Bridge positions count the residues as written; N and C are the ends. Square brackets hold non-standard residues; d marks the D form. Peptide text beside a SMILES is read from it. * marks the point of attachment. Bip(4'-COOH) = N[C@@H](Cc1ccc(-c2ccc(C(=O)O)cc2)cc1)C(=O)O; X31 = N=C(N)Nc1ccc(-c2ccc(C[C@H](N[*:1])C(=O)[*:2])cc2)cc1; X20 = CC(NC[C@H](N[*:1])C(=O)[*:2])=C1C(=O)CC(C)(C)CC1=O; Phe(3-CF3) = N[C@@H](Cc1cccc(C(F)(F)F)c1)C(=O)O; Ala(morpholin-4-yl) = N[C@@H](CN1CCOCC1)C(=O)O; Phe(4-COOH) = N[C@@H](Cc1ccc(C(=O)O)cc1)C(=O)O; Bip = N[C@@H](Cc1ccc(-c2ccccc2)cc1)C(=O)O; Phe(4-NH2) = Nc1ccc(C[C@H](N)C(=O)O)cc1; Abu(3R-NH2) = C[C@@H](N)[C@H](N)C(=O)O; Phe(3-Me) = Cc1cccc(C[C@H](N)C(=O)O)c1; Abu(3S-NH2) = C[C@H](N)[C@H](N)C(=O)O; Val(3-OH) = CC(C)(O)[C@H](N)C(=O)O; hPhe = N[C@@H](CCc1ccccc1)C(=O)O; Cha = N[C@@H](CC1CCCCC1)C(=O)O; aThr = C[C@H](O)[C@H](N)C(=O)O; dDab = NCC[C@@H](N)C(=O)O; Carboxymethyl = O=C(O)C*; NMeA = CN[C@@H](C)C(=O)O; Orn = NCCC[C@H](N)C(=O)O; Dab = NCC[C@H](N)C(=O)O
# Molecular target: T1, Alexa fluor-647 labeled human PD-L1-Ig binding to Jurkat cell line over-expressing human PD-1 (Homo sapiens, UniProt Q15116)
# T1 construct: expressed in transfected cells; host or cells: Jurkat
# Assay: Jurkat-PD-1 Cell Binding High-Content Screening Assay (CBA): Method 3 (Alexa fluor-647 labeled PD-L1-Ig)
# Settings: Jurkat-PD-1 cells, Alexa fluor-647 labeled PD-L1-Ig 177 nM; head μM; read-out: CBA Method 3 μM
# Experimental: Jurkat-PD-1 Cell Binding High-Content Screening Assay (CBA): Method 3
# Alexa fluor-647 was covalently linked to the Ig epitope tag of human PD-L1-Ig and fluorescently labeled PD-L1-Ig was used for the binding studies with a Jurkat cell line over-expressing human PD-1. Briefly, 2.5×10^4 Jurkat-hPD-1 cells were seeded into 384 well plates in 20 μl of RPMI supplemented with 10% fetal calf serum. 12.5 nl of compound was added to cells followed by incubation at 37° C. for 2 hours. Then, 10 ul of Alexa fluor-647 labeled PD-L1-Ig (177 nM final), diluted in RPMI supplemented with 10% fetal calf serum was added to the cells and incubated for 1 hour. Cells were then fixed with 4% paraformaldehyde containing 10 μg/ml Hoechst 33342 and then washed 3× in 100 ul PBS and 100 ul of PBS was added in the final step. Data was collected using the Operetta High Content Imager and the data was analyzed using the columbus software.
# T1 sequence (Q15116 25-288): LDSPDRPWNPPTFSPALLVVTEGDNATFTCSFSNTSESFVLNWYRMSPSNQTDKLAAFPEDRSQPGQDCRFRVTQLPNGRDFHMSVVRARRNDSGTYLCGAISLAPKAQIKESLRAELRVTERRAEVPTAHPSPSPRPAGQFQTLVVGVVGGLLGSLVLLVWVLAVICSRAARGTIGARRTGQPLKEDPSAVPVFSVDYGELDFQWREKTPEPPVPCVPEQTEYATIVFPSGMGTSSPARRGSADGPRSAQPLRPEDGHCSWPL
row,IC50,SMILES
1,0.14 µM,CC(C)C[C@H]1NC(=O)[C@H](C)N(C)C(=O)[C@H](Cc2ccc(-c3ccc(NC(=N)N)cc3)cc2)NC(=O)[C@H](Cc2ccc(-c3ccccc3)cc2)NC(=O)[C@H](Cc2ccc(OCC(=O)O)cc2)NC(=O)[C@H](Cc2cccc(C(F)(F)F)c2)NC(=O)[C@H](CC(=O)O)NC(=O)[C@H](Cc2ccc(C(=O)O)cc2)NC(=O)[C@H]([C@H](C)N)NC(=O)CSC[C@@H](C(=O)N[C@H](CCN)C(N)=O)NC(=O)[C@H](CO)NC(=O)[C@H]([C@H](C)O)NC(=O)[C@H](CC2CCCCC2)NC(=O)[C@H](CCN)NC1=O [Example 5231] ({CH2CO}-[Abu(3S-NH2)][Phe(4-COOH)]D[Phe(3-CF3)]Y(Carboxymethyl)[Bip][X31][NMeA][dL][Dab][Cha][aThr]SC[dDab]-NH2; thioether N-14)
2,0.03 µM,Cc1cccc(C[C@@H]2NC(=O)[C@H](CC(=O)O)NC(=O)[C@H](Cc3ccc(OCC(=O)O)cc3)NC(=O)[C@H](CCc3ccccc3)NC(=O)CSC[C@@H](C(=O)N[C@@H](CCN)C(N)=O)NC(=O)[C@H](CCCN)NC(=O)[C@H](C(C)C)NC(=O)[C@H](CC3CCCCC3)NC(=O)[C@H](CCN)NC(=O)[C@@H](CC(C)C)NC(=O)[C@H](C)N(C)C(=O)[C@H](CCC(N)=O)NC(=O)[C@H](Cc3ccc(-c4ccccc4)cc3)NC(=O)[C@H](Cc3ccc(C(=O)O)cc3)NC2=O)c1 [Example 5265] ({CH2CO}-[hPhe]Y(Carboxymethyl)D[Phe(3-Me)][Phe(4-COOH)][Bip]Q[NMeA][dL][Dab][Cha]V[Orn]C[Dab]-NH2; thioether N-14)
3,0.07 µM,Cc1cccc(C[C@@H]2NC(=O)[C@H](CC(=O)O)NC(=O)[C@H](Cc3ccc(-c4ccc(C(=O)O)cc4)cc3)NC(=O)[C@H](C)NC(=O)CSC[C@@H](C(=O)N[C@@H](CCN)C(N)=O)NC(=O)[C@H](CO)NC(=O)[C@H](C(C)(C)O)NC(=O)[C@H](CC3CCCCC3)NC(=O)[C@H](Cc3cnc[nH]3)NC(=O)[C@@H](CC(C)C)NC(=O)[C@H](C)N(C)C(=O)[C@H](Cc3ccc(C(=O)O)cc3)NC(=O)[C@H](Cc3ccc(-c4ccccc4)cc3)NC(=O)[C@H](Cc3ccc(-c4ccc(C(=O)O)cc4)cc3)NC2=O)c1 [Example 5121] ({CH2CO}-A[Bip(4'-COOH)]D[Phe(3-Me)][Bip(4'-COOH)][Bip][Phe(4-COOH)][NMeA][dL]H[Cha][Val(3-OH)]SC[Dab]-NH2; thioether N-14)
4,0.03 µM,Cc1cccc(C[C@@H]2NC(=O)[C@H](CC(=O)O)NC(=O)[C@H](Cc3ccc(OCC(=O)O)cc3)NC(=O)[C@H](CC3CCCCC3)NC(=O)CSC[C@@H](C(=O)N[C@@H](CCN)C(N)=O)NC(=O)[C@H](CCC(=O)O)NC(=O)[C@H](C(C)C)NC(=O)[C@H](CC3CCCCC3)NC(=O)[C@H](CCN)NC(=O)[C@@H](CC(C)C)NC(=O)[C@H](C)N(C)C(=O)[C@H](CCC(N)=O)NC(=O)[C@H](Cc3ccc(-c4ccccc4)cc3)NC(=O)[C@H](CCc3ccccc3)NC2=O)c1 [Example 5214] ({CH2CO}-[Cha]Y(Carboxymethyl)D[Phe(3-Me)][hPhe][Bip]Q[NMeA][dL][Dab][Cha]VEC[Dab]-NH2; thioether N-14)
5,0.33 µM,Cc1cccc(C[C@@H]2NC(=O)[C@H](CC(=O)O)NC(=O)[C@H](Cc3ccc(OCC(=O)O)cc3)NC(=O)[C@H](CC3CCCCC3)NC(=O)CSC[C@@H](C(=O)N[C@@H](CCN)C(N)=O)NC(=O)[C@H](CCCN)NC(=O)[C@H](C(C)C)NC(=O)[C@H](Cc3ccc(N)cc3)NC(=O)[C@H](CCN)NC(=O)[C@@H](CC(C)C)NC(=O)[C@H](C)N(C)C(=O)[C@H](CCC(N)=O)NC(=O)[C@H](Cc3ccc(-c4ccccc4)cc3)NC(=O)[C@H](Cc3ccc(C(=O)O)cc3)NC2=O)c1 [Example 5189] ({CH2CO}-[Cha]Y(Carboxymethyl)D[Phe(3-Me)][Phe(4-COOH)][Bip]Q[NMeA][dL][Dab][Phe(4-NH2)]V[Orn]C[Dab]-NH2; thioether N-14)
6,0.02 µM,CC(NC[C@@H]1NC(=O)[C@H](Cc2ccc(C(=O)O)cc2)NC(=O)[C@H](CN2CCOCC2)NC(=O)CSC[C@@H](C(=O)N[C@@H](CCN)C(N)=O)NC(=O)[C@H](CCCN)NC(=O)[C@H](C(C)C)NC(=O)[C@H](CC2CCCCC2)NC(=O)[C@H](CCN)NC(=O)[C@@H](CC(C)C)NC(=O)[C@H](C)N(C)C(=O)[C@H](CCC(N)=O)NC(=O)[C@H](Cc2ccc(-c3ccccc3)cc2)NC(=O)[C@H](Cc2ccc(C(=O)O)cc2)NC(=O)[C@H](Cc2cccc(C(F)(F)F)c2)NC1=O)=C1C(=O)CC(C)(C)CC1=O [Example 5105] ({CH2CO}-[Ala(morpholin-4-yl)][Phe(4-COOH)][X20][Phe(3-CF3)][Phe(4-COOH)][Bip]Q[NMeA][dL][Dab][Cha]V[Orn]C[Dab]-NH2; thioether N-14)

# Same assay, conditions: Jurkat-PD-1 cells, Alexa fluor-647 labeled PD-L1-Ig 177 nM; nM; read-out: CBA Method 3
row,IC50,SMILES
1,0.0016 µM,CC(C)C[C@H]1NC(=O)[C@H](C)N(C)C(=O)[C@H](Cc2ccc(C(=O)O)cc2)NC(=O)[C@H](Cc2ccc(-c3ccccc3)cc2)NC(=O)[C@H](Cn2cc(C3CC3)nn2)NC(=O)[C@H](Cc2cccc(C(F)(F)F)c2)NC(=O)[C@H](CC(=O)O)NC(=O)[C@H](Cc2ccc(C(=O)O)cc2)NC(=O)[C@H]([C@@H](C)N)NC(=O)CSC[C@@H](C(=O)N[C@@H](CCN)C(N)=O)NC(=O)[C@H](CCC(=O)O)NC(=O)[C@H](C(C)C)NC(=O)[C@H](CC2CCCCC2)NC(=O)[C@H](CCN)NC1=O [Example 5251]
2,0.0039 µM,Cc1cccc(C[C@@H]2NC(=O)[C@H](CC(=O)O)NC(=O)[C@H](Cc3ccc(OCC(=O)O)cc3)NC(=O)[C@H](CCN)NC(=O)CSC[C@@H](C(=O)N[C@@H](CCN)C(N)=O)NC(=O)[C@H](CCCN)NC(=O)[C@H](C(C)C)NC(=O)[C@H](CC3CCCCC3)NC(=O)[C@H](CCN)NC(=O)[C@@H](CC(C)C)NC(=O)[C@H](C)N(C)C(=O)[C@H](CCC(N)=O)NC(=O)[C@H](Cc3ccc(-c4ccccc4)cc3)NC(=O)[C@H](Cc3ccc(C(=O)O)cc3)NC2=O)c1 [Example 5179] ({CH2CO}-[Dab]Y(Carboxymethyl)D[Phe(3-Me)][Phe(4-COOH)][Bip]Q[NMeA][dL][Dab][Cha]V[Orn]C[Dab]-NH2; thioether N-14)
3,0.0012 µM,Cc1cccc(C[C@@H]2NC(=O)[C@H](CC(=O)O)NC(=O)[C@H](Cc3ccc(OCC(=O)O)cc3)NC(=O)[C@H](Cc3ccccc3)NC(=O)CSC[C@@H](C(=O)N[C@@H](CCN)C(N)=O)NC(=O)[C@H](CCCN)NC(=O)[C@H](C(C)C)NC(=O)[C@H](CC3CCCCC3)NC(=O)[C@H](CCN)NC(=O)[C@@H](CC(C)C)NC(=O)[C@H](C)N(C)C(=O)[C@H](CCC(N)=O)NC(=O)[C@H](Cc3ccc(-c4ccccc4)cc3)NC(=O)[C@H](Cc3ccc(C(=O)O)cc3)NC2=O)c1 [Example 5267] ({CH2CO}-FY(Carboxymethyl)D[Phe(3-Me)][Phe(4-COOH)][Bip]Q[NMeA][dL][Dab][Cha]V[Orn]C[Dab]-NH2; thioether N-14)
4,0.0019 µM,CC(C)C[C@H]1NC(=O)[C@H](C)N(C)C(=O)[C@H](CCC(N)=O)NC(=O)[C@H](Cc2ccc(-c3ccccc3)cc2)NC(=O)[C@H](Cc2ccc(OCC(=O)O)cc2)NC(=O)[C@H](Cc2cccc(C(F)(F)F)c2)NC(=O)[C@H](CC(=O)O)NC(=O)[C@H](CCC(N)=O)NC(=O)[C@H]([C@@H](C)N)NC(=O)CSC[C@@H](C(=O)N[C@@H](CCN)C(N)=O)NC(=O)[C@H](CCCN)NC(=O)[C@H](C(C)C)NC(=O)[C@H](CC2CCCCC2)NC(=O)[C@H](CCN)NC1=O [Example 5249] ({CH2CO}-[Abu(3R-NH2)]QD[Phe(3-CF3)]Y(Carboxymethyl)[Bip]Q[NMeA][dL][Dab][Cha]V[Orn]C[Dab]-NH2; thioether N-14)
